Tests used:
[1] = CN-105 pharmacokinetics in brain and plasma (LC/MS); type: in vivo; conditions: mice
Source text: One rationale for creating the smaller apoE mimetic peptides was to enhance CNS penetration and possibility of noninvasive mechanisms of delivery (for example, intranasal). To define pharmacokinetic parameters, we performed initial non-GLP studies in mice using stable radioisotope labeled CN-105 peptide (MW of heavy CN-105 was 362.7 vs. 357.7). […] The total CNS exposure was 44%; of note, this is approximately 5 fold higher than prior apoE based mimetic peptides.
Experiment 1. CN-105 pharmacokinetics in Brain and Plasma. The concentration of CN-105 was determined at 1, 3, 10, 15, 30 and 60 minutes (n = 5/time point) post injection using LC/MS.
A protocol was developed in collaboration with the Duke University Core Proteomics and Metabolomics Shared Resource using LC/MS on a high-resolution accurate-mass instrument. […] After extraction, samples were dried down in Speed Vac and reconstituted in 25 uL of 1% ACN/0.1% TFA/0.02% HFBA and analyzed using a nanoAcquity LC (Waters) coupled to a Synapt G2 Q-ToF (Waters). Quantitative data was extracted as selected ion chromatograms for both the native ((M + 2H)^2+at m/z 357.7 and heavy-labeled form CN-105 at m/z 362.7). Quantitation was accomplished by using a ratio of the peak area of the analyte and internal standard which was fit to a 7-point calibration curve (plasma R^2 = 0.997 and brain R^2 = 0.999).

[2] = system: murine model of collagenase-induced ICH; assay: Hemorrhage volume by SWI MRI after collagenase-induced ICH; type: in vivo, C57BL/6J mice; conditions: mean ± standard error, n = 3–4/group
Description: (§1) Experiment 2. Hematoma volume. Hemorrhage volume was assessed by magnetic resonance imaging (MRI) at 2 hours post ICH (before treatment) and 24 hours post ICH. 3 saline- and 3 CN-105-treated animals were perfused at 24 hours post ICH, and brain hematoxylin and eosin (H&E) staining was performed. CN-105 or saline was given by tail vein injection at 2, 6, and 24 hours post-ICH.
(§2) Intrastriatal collagenase injection was used to induce ICH in mice, as previously described. Briefly, the trachea was intubated after anesthesia induction with 4.6% isoflurane, and the lungs were mechanically ventilated with 1.5% isoflurane in a mixture of 30%/70% O2/N2. Rectal temperature was maintained at 37 °C ± 0.2 °C by circulating warm water in an underbody waterbed. The animal’s head was secured in a stereotactic frame, and a midline scalp incision was made. After exposing the skull, a burr hole was created 2.2 mm left lateral to bregma, and a 0.5 μL syringe needle (Hamilton, Reno, NV, USA) was advanced to a depth of 3 mm from cortex. Type IV-S Clostridial collagenase (Sigma, St. Louis, MO, USA) was injected over 2 minutes (0.075 U in 0.4 μL normal saline). After closing the incision, animals were allowed to recover spontaneous ventilation, and were then extubated and given free access to food and water. […]

[3] = system: murine model of collagenase-induced ICH; assay: Histological hemorrhage volume (H&E staining) after ICH; type: in vivo, C57BL/6J mice; conditions: 0.05 mg/kg i.v. tail vein at 2, 6 and 24 hours post-ICH; saline 7.97 ± 0.97, p = 0.66; mean ± standard error, n = 3/group
Description: as §1
Intrastriatal collagenase injection was used to induce ICH in mice, as previously described. Briefly, the trachea was intubated after anesthesia induction with 4.6% isoflurane, and the lungs were mechanically ventilated with 1.5% isoflurane in a mixture of 30%/70% O2/N2. Rectal temperature was maintained at 37 °C ± 0.2 °C by circulating warm water in an underbody waterbed. The animal’s head was secured in a stereotactic frame, and a midline scalp incision was made. […]
Histological hematoma volume was measured at 24 hours after injury to coincide with maximum hematoma expansion. […] Lesion volume was measured by digitally sampling stained sections with an image analyzer (M2 Turnkey System, Imaging Research, Inc., St. Catharines, Ontario, Canada). Lesion volumes (mm^3) were computed as running sums of lesion area multiplied by the known interval between sections (400 μm) over the extent of the lesion, and expressed as an orthogonal projection.

[4] = system: murine model of collagenase-induced ICH; assay: Brain water content (cerebral edema) after ICH; type: in vivo, C57BL/6J mice; conditions: 24 hours after injury, 0.05 mg/kg i.v. at 2, 6 and 24 hours post ICH, mean ± standard error, n = 6–8/group
Description: Experiment 3. Brain water content. Brain water content was assessed at 24 hours post ICH in 8 saline- and 8 CN-105-treated animals. CN-105 or saline was given by tail vein injection at 2, 6, and 24 hours post ICH. Two animals randomized to CN-105 died at 4 and 6 hours post-ICH, and were excluded from further analyses.
as §2, with “saline).” for “saline). After closing the incision, animals were allowed to recover spontaneous ventilation, and were then extubated and given free access to food and water.”
Mice were anesthetized and euthanized at 24 hours after ICH to coincide with the point of maximum inflammatory changes. […] Cerebral edema was expressed as water content, calculated as a percentage of wet weight ([wet weight - dry weight]/[wet weight] x 100).

[5] = system: murine model of collagenase-induced ICH; assay: Neuroseverity score after ICH; type: in vivo, C57BL/6J mice; conditions: 0.05 mg/kg i.v. at 4, 8 and 24 hours post ICH; p = 0.12; n = 14/group
Description: (§3) Experiment 4. Neurobehavioral assessment. Animals were randomized to vehicle (n = 14) or CN-105 (n = 14) groups, and evaluated for neurobehavioral function (neuroscore), vestibulomotor function (rotarod), and spatial learning (MWM). Mice received tail vein injections of vehicle or CN105 at 4, 8, and 24 hours post ICH.
(§4) Intrastriatal collagenase injection was used to induce ICH in mice, as previously described. Briefly, the trachea was intubated after anesthesia induction with 4.6% isoflurane, and the lungs were mechanically ventilated with 1.5% isoflurane in a mixture of 30%/70% O2/N2. Rectal temperature was maintained at 37 °C ± 0.2 °C by circulating warm water in an underbody waterbed. The animal’s head was secured in a stereotactic frame, and a midline scalp incision was made. After exposing the skull, a burr hole was created 2.2 mm left lateral to bregma, and a 0.5 μL syringe needle (Hamilton, Reno, NV, USA) was advanced to a depth of 3 mm from cortex. Type IV-S Clostridial collagenase (Sigma, St. Louis, MO, USA) was injected over 2 minutes (0.075 U in 0.4 μL normal saline). After closing the incision, animals were allowed to recover spontaneous ventilation, and were then extubated and given free access to food and water.
CN-105 (Ac-VSRRR-amide) was synthesized by Polypeptide Inc. (San Diego, CA) to a purity of >99%, and was dissolved in normal saline. […]

[6] = system: murine model of collagenase-induced ICH; assay: Rotarod testing (vestibulomotor function) after ICH; type: in vivo, C57BL/6J mice; conditions: Days 1–5 after ICH; 0.05 mg/kg i.v. at 4, 8 and 24 hours post ICH; p = 0.0435; n = 14/group
Description: as §3
as §2, with “saline).” for “saline). After closing the incision, animals were allowed to recover spontaneous ventilation, and were then extubated and given free access to food and water.”
An automated rotarod (Ugo Basile, Comerio, Italy) was used to assess the effects of therapeutic intervention on vestibulomotor function. […] The average time lapse to fall from the rotating cylinder in the second set of trials was recorded as baseline latency. […] Average latency to fall from the rod was recorded.

[7] = system: murine model of collagenase-induced ICH; assay: Morris water maze testing after ICH; type: in vivo, C57BL/6J mice; conditions: Days 29–32 after ICH, 0.05 mg/kg i.v. at 4, 8 and 24 hours post ICH, n = 14/group
Description: as §3
as §2, with “saline).” for “saline). After closing the incision, animals were allowed to recover spontaneous ventilation, and were then extubated and given free access to food and water.”
The MWM[20] was used to assess the effects of therapeutic intervention on spatial learning and memory. […] Latency to find the platform was recorded by a computerized video tracking system (KeilSoft LLC, Chapel Hill, NC).

[8] = system: murine model of collagenase-induced ICH; assay: F4/80 microglial staining and stereology after ICH; type: in vivo, C57BL/6J mice; conditions: 5 days after ICH; 0.05 mg/kg i.v. at 4, 8 and 24 hours post ICH; vehicle 14593 ± 116, p = 0.003; mean ± standard error, n = 3–4
Description: Experiment 5. Microglial staining. A separate cohort of animals was randomized to vehicle (n = 4) or CN-105 (n = 4) groups and received tail vein injections at 4, 8, and 24 hours post ICH. Immunohistochemical microglial staining was performed and gliosis was quantified by stereology. One mice in vehicle group died within 1 day after injury and was excluded.
as §2, with “saline).” for “saline). After closing the incision, animals were allowed to recover spontaneous ventilation, and were then extubated and given free access to food and water.”
(§5) After anesthetic induction, mice underwent transcardial perfusion with 30 mL normal saline. […] Cells were counted using a Nikon 218912 light microscope interfaced with the StereoInvestigator software package (MicroBrightField, Williston, VT, USA). […]

[9] = system: murine model of collagenase-induced ICH; assay: NeuN neuronal survival, stereology after ICH; type: in vivo, C57BL/6J mice; conditions: ipsilateral, 33 days post ICH, 0.05 mg/kg i.v. at 4, 8 and 24 hours, n = 7/group
Source text: Experiment 6. Neuronal survival. The hippocampus has been associated with spatial learning and memory. To determine whether histological outcome correlates with functional outcomes, neuronal density was quantified in the hippocampus and striatum of the mice (n = 7/group) in experiment 4 by stereology at 33 days post-ICH following MWM testing.
as §4
CN-105 (Ac-VSRRR-amide) was synthesized by Polypeptide Inc. (San Diego, CA) to a purity of >99%, and was dissolved in normal saline. Using a murine model of traumatic brain injury, 0.05 mg/kg CN-105 was previously found to be the lowest dose that improved functional performance after injury (data not shown). Here, therefore, 100 μL 0.05 mg/kg CN-105 in saline, or vehicle, was administered via intravenous tail vein injection 3 times at pre-specified timepoints after ICH. Animals were gently restrained by a rodent restrainer (Harvard Apparatus, Holliston, MA) during each administration.
as §5

Substance: Ac-VSRRR-NH2 [CN-105, Ac-VSRRR-amide]
- AUC0–60 in brain ([1]; brain homogenate (urea in buffer), 0-60 minutes post injection, n = 5/time point, LC/MS): 548 fmol·min/µL
- total CNS exposure ([1]; brain versus plasma AUC0–60): 44%
- AUC0–60 in plasma ([1]; plasma, 0-60 minutes post injection, n = 5/time point, LC/MS): 1253 fmol·min/µL
- half-life ([1]; mouse, non-GLP study, stable isotope labeled CN-105, plasma sampled 1-60 minutes post injection, n = 5/time point, LC/MS, read-out: terminal plasma half-life): 27 min
- hemorrhage volume by SWI MRI at 24 hours post ICH ([2]; 0.05 mg/kg i.v. tail vein at 2, 6 and 24 hours post-ICH, saline 10.77 ± 1.70, p = 0.82): 10.14 ± 1.92 mm^3
- hematoma volume by MRI at 2 hours after ICH ([2]; 2 hours after ICH induction, prior to treatment (baseline of the CN-105 group)): 9.93 ± 1.88 mm^3
- hemorrhage volume by H&E staining at 24 hours after ICH [3]: 8.43 ± 0.15 mm^3
- brain water content, contralateral hemisphere ([4]; p = 0.64): 78.70 ± 0.41%
- brain water content, injured hemisphere ([4]; vehicle 80.67 ± 0.26, p = 0.029): 79.57 ± 0.38%
- neuroseverity scores, Day 1 to Day 5 after ICH versus vehicle [5]: mild but not significant improvement
- rotarod motor functional recovery versus vehicle [6]: significantly improved motor functional recovery
- Morris water maze escape latencies versus vehicle ([7]; Day x Group p = 0.02): significantly lower latencies
- Morris water maze learning curves (learning slopes) versus vehicle ([7]; p = 0.01): significantly steeper learning curves
- number of F4/80-positive cells in the ipsilateral hippocampi [8]: 9327 ± 838 cells/mm^3
- NeuN-positive cell numbers, striatum ([9]; vehicle 25142 ± 5777, p = 0.27): 21816 ± 5073 cells/mm^3
- NeuN-positive cell numbers, dentate gyrus polymorphic region ([9]; vehicle 34919 ± 9378, p = 0.16): 42109 ± 8439 cells/mm^3
- NeuN-positive cell numbers, CA3 region ([9]; vehicle 188719 ± 4780, p = 0.009): 225773 ± 10841 cells/mm^3
